For 14 compounds, T/C results are on record in PubChem BioAssay AID328 (DTP/NCI, 2004).

Structures are written as SMILES. Values joined by “and” are separate entries in the source; they are usually repeats but may differ in a detail not shown here. Identical values can stand only once. Inconclusive results and toxic doses are left out.

For this assay, the system named is BDF1 mice, P388 leukemia ip, median survival T/C. The assay is described as follows: NCI In Vivo Anticancer Drug Screen. Data for tumor model P388 Leukemia (intraperitoneal) in B6D2F1 (BDF1) mice. To be noted: endpoint: median survival time, higher = longer survival. Summed up:
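Reported as T/C, where T is the survival measurement in dosed animals and C the same measurement in vehicle controls.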

Where [1] appears, read: dose: 100.0 mg/kg/injection, schedule: Q04DX003 (ip), vehicle: saline with Tween-80.
The mark [2] stands for this setting: dose: 200.0 mg/kg/injection, schedule: Q04DX003 (ip), vehicle: saline with Tween-80.
Where [3] appears, read: dose: 400.0 mg/kg/injection, schedule: Q04DX003 (ip), vehicle: saline with Tween-80.
The mark [4] stands for this setting: dose: 6.25 mg/kg/injection, schedule: Q01DX009 (ip), vehicle: saline with Tween-80.
Setting [5] is: dose: 12.5 mg/kg/injection, schedule: Q01DX009 (ip), vehicle: saline with Tween-80.
Setting [6] is: dose: 25.0 mg/kg/injection, schedule: Q01DX009 (ip), vehicle: saline with Tween-80.
Where [7] appears, read: dose: 50.0 mg/kg/injection, schedule: Q01DX005 (ip), vehicle: saline with Tween-80.
Where [8] appears, read: dose: 100.0 mg/kg/injection, schedule: Q01DX005 (ip), vehicle: saline with Tween-80.
Setting [9] is: dose: 200.0 mg/kg/injection, schedule: Q01DX005 (ip), vehicle: saline with Tween-80.

On to `COc1ccc2c(c1)CCC1CC(=O)C=C21` (stereo not drawn), for which the T/C was 105 % of control (dose: 100.0 mg/kg/injection, schedule: Q01DX001 (ip), vehicle: saline); 90 % of control (dose: 200.0 mg/kg/injection, schedule: Q01DX001 (ip), vehicle: saline); 100 % of control (dose: 400.0 mg/kg/injection, schedule: Q01DX001 (ip), vehicle: saline).
In the case of `O=C(COc1ccc(Cl)cc1Cl)Nc1ccc(F)cc1`, the T/C by setting is: under setting [1], 95 % of control; under setting [2], 100 % of control; under setting [3], 90 % of control.
`CB1NN=C(C)c2ccsc21`: the T/C was 105 % of control under setting [4], 91 % of control under setting [5] and 95 % of control under setting [6].
As to `Cc1ccc(S(=O)(=O)N/N=C/C(O)CO)cc1` (stereo not drawn), the T/C is 98 % of control (dose: 3.13 mg/kg/injection, schedule: Q01DX009 (ip), vehicle: other); 91 % of control (dose: 6.25 mg/kg/injection, schedule: Q01DX009 (ip), vehicle: other); 98 % of control and 101 % of control (dose: 12.5 mg/kg/injection, schedule: Q01DX009 (ip), vehicle: other); 98 % of control (dose: 25.0 mg/kg/injection, schedule: Q01DX009 (ip), vehicle: other); 96 % of control (dose: 50.0 mg/kg/injection, schedule: Q01DX009 (ip), vehicle: other); 99 % of control (dose: 100.0 mg/kg/injection, schedule: Q01DX009 (ip), vehicle: other). Further, the T/C is 98 % of control (dose: 200.0 mg/kg/injection, schedule: Q01DX009 (ip), vehicle: other) and 102 % of control (dose: 400.0 mg/kg/injection, schedule: Q01DX009 (ip), vehicle: other).
Take `[O-][n+]1c(CN2CCCCC2)nc2cccc3c2c1-c1ccccc1-3`: the T/C is, setting by setting: (dose: 12.5 mg/kg/injection, schedule: Q03HX008 (ip), vehicle: saline) 92 % of control; (dose: 12.5 mg/kg/injection, schedule: Q03HX016 (ip), vehicle: saline) 100 % of control; (dose: 12.5 mg/kg/injection, schedule: Q03HX024 (ip), vehicle: saline) 96 % of control; under setting [6], 105 % of control; (dose: 25.0 mg/kg/injection, schedule: Q03HX008 (ip), vehicle: saline) 95 % of control; (dose: 25.0 mg/kg/injection, schedule: Q03HX016 (ip), vehicle: saline) 99 % of control. Also, the T/C (dose: 25.0 mg/kg/injection, schedule: Q03HX024 (ip), vehicle: saline) is 93 % of control; the T/C (dose: 50.0 mg/kg/injection, schedule: Q01DX009 (ip), vehicle: Klucel (hydroxypropylcellulose) (HPC)) is 116 % of control; the T/C (dose: 50.0 mg/kg/injection, schedule: Q01DX009 (ip), vehicle: saline with Tween-80) is 108 % of control and 116 % of control; the T/C (dose: 50.0 mg/kg/injection, schedule: Q03HX008 (ip), vehicle: saline) was 95 % of control; the T/C (dose: 50.0 mg/kg/injection, schedule: Q03HX016 (ip), vehicle: saline) is 94 % of control; the T/C (dose: 50.0 mg/kg/injection, schedule: Q03HX024 (ip), vehicle: saline) is 110 % of control. For the same compound, the T/C is, setting by setting: (dose: 50.0 mg/kg/injection, schedule: Q08HX027 (ip), vehicle: saline) 113 % of control; (dose: 100.0 mg/kg/injection, schedule: Q01DX009 (ip), vehicle: Klucel (hydroxypropylcellulose) (HPC)) 100 % of control; (dose: 100.0 mg/kg/injection, schedule: Q03HX008 (ip), vehicle: saline) 92 % of control; (dose: 100.0 mg/kg/injection, schedule: Q03HX016 (ip), vehicle: saline) 90 % of control; (dose: 100.0 mg/kg/injection, schedule: Q03HX024 (ip), vehicle: saline) 115 % of control; (dose: 100.0 mg/kg/injection, schedule: Q08HX027 (ip), vehicle: saline) 119 % of control. The T/C is 91 % of control (dose: 150.0 mg/kg/injection, schedule: Q01DX009 (oral), vehicle: saline); 158 % of control (dose: 200.0 mg/kg/injection, schedule: Q01DX009 (ip), vehicle: saline with Tween-80); 222 % of control (dose: 200.0 mg/kg/injection, schedule: Q01DX009 (ip), vehicle: saline); 95 % of control (dose: 300.0 mg/kg/injection, schedule: Q01DX009 (oral), vehicle: saline); 151 % of control (dose: 400.0 mg/kg/injection, schedule: Q01DX009 (ip), vehicle: Klucel (hydroxypropylcellulose) (HPC)); 98 % of control (dose: 400.0 mg/kg/injection, schedule: Q01DX009 (oral), vehicle: saline). Also, the T/C (dose: 600.0 mg/kg/injection, schedule: Q01DX009 (oral), vehicle: saline) was 103 % of control.
Turning to `CCCCCCCCCCCS(=O)(=O)C(CCOS(C)(=O)=O)COS(C)(=O)=O` (stereo not drawn), the T/C (dose: 100.0 mg/kg/injection, schedule: Q04DX003 (ip), vehicle: Klucel (hydroxypropylcellulose) (HPC)) is 95 % of control; the T/C (dose: 200.0 mg/kg/injection, schedule: Q04DX003 (ip), vehicle: Klucel (hydroxypropylcellulose) (HPC)) is 100 % of control; the T/C (dose: 400.0 mg/kg/injection, schedule: Q04DX003 (ip), vehicle: Klucel (hydroxypropylcellulose) (HPC)) is 100 % of control.
Take `COC(=O)CC1CCN(C(=O)OCc2ccccc2)C(Cc2c[nH]c3ccccc23)C1=O` (stereo not drawn): the T/C by setting is: (dose: 2.0 mg/kg/injection, schedule: Q01DX009 (ip), vehicle: saline) 105 % of control; (dose: 3.0 mg/kg/injection, schedule: Q01DX009 (ip), vehicle: saline) 109 % of control; (dose: 4.0 mg/kg/injection, schedule: Q01DX009 (ip), vehicle: saline) 114 % of control; (dose: 8.0 mg/kg/injection, schedule: Q01DX009 (ip), vehicle: saline) 98 % of control; (dose: 10.0 mg/kg/injection, schedule: Q01DX009 (ip), vehicle: saline) 109 % of control; (dose: 16.0 mg/kg/injection, schedule: Q01DX009 (ip), vehicle: saline) 102 % of control. Besides, the T/C is 104 % of control (dose: 30.0 mg/kg/injection, schedule: Q01DX009 (ip), vehicle: saline); 95 % of control (dose: 32.0 mg/kg/injection, schedule: Q01DX009 (ip), vehicle: saline); 109 % of control (dose: 60.0 mg/kg/injection, schedule: Q01DX009 (ip), vehicle: saline).
On to `COc1cccc2c1C(=O)c1c(O)c3c(c(O)c1C2=O)C[C@@](O)(C(=O)CO)C[C@@H]3OC1CC(N(C)C)C(O)C(C)O1` (stereo partly drawn), for which the T/C (dose: 1.44 mg/kg/injection, schedule: Q04DX003 (ip), vehicle: water) is 170 % of control; the T/C (dose: 2.4 mg/kg/injection, schedule: Q04DX003 (ip), vehicle: water) was 198 % of control; the T/C (dose: 4.0 mg/kg/injection, schedule: Q04DX003 (ip), vehicle: water) is 89 % of control.
Consider `CCCCOCN(CCCc1ccccc1)COCCCC`, for which, for the setting “dose: 100.0 mg/kg/injection, schedule: Q01DX009 (ip), vehicle: saline with Tween-80”, the T/C was 121 % of control.
Consider `Cc1c(N)c2ccccc2c(=O)n1C`, for which the T/C is, setting by setting: under setting [7], 92 % of control; under setting [8], 97 % of control; under setting [9], 106 % of control.
As to `O=[N+]([O-])c1cc(S(=O)(=O)NCc2ccco2)ccc1N/N=C/c1ccccn1`, the T/C is, setting by setting: (dose: 0.78 mg/kg/injection, schedule: Q01DX009 (ip), vehicle: saline with Tween-80) 99 % of control; (dose: 1.56 mg/kg/injection, schedule: Q01DX009 (ip), vehicle: saline with Tween-80) 99 % of control; (dose: 3.12 mg/kg/injection, schedule: Q01DX009 (ip), vehicle: saline with Tween-80) 95 % of control.
For the compound `CCN(CC)CCCC(C)Nc1ncnc2oc(C)c(C)c12` (stereo not drawn), the T/C was 95 % of control under setting [4], 100 % of control under setting [5] and 100 % of control under setting [6].
For the compound `O=C(CC(O)(C(F)(F)F)C(F)(F)F)c1ccccc1Cl`, the T/C reads like this: under setting [1], 120 % of control; under setting [2], 100 % of control; under setting [3], 120 % of control.
For the compound `COC(=O)c1c([N+](=O)[O-])cccc1[N+](=O)[O-]`, the T/C runs as follows: under setting [7], 97 % of control; under setting [8], 97 % of control; under setting [9], 94 % of control.
